Measurements: PMC10788528 (The Journal of Biological Chemistry, 2023)
Several values for one entry are separate records, joined by “and”; a condition that tells them apart may be missing. Equal entries are not always repeated. Where two headings read alike, the source gives them in different places.

Key:
[1] = tested on: juvenile worms; conditions: ref 7 (PZQ); 12 ((S)-MCLZ); cited from earlier work
[2] = target: T1, Sm.TRPMMCLZ (Schistosoma mansoni, UniProt A0A5K4FCC0); assay: Ca2+ reporter assay; assay type: cell-based; conditions: for Activator screen at Sm.TRPMMCLZ: 10 μM; for EC50: Activation of Sm.TRPMMCLZ, EC50, HEK293 cells, cytoplasmic Ca2+ (Fluo-4)
T1 sequence (A0A5K4FCC0 1-1380): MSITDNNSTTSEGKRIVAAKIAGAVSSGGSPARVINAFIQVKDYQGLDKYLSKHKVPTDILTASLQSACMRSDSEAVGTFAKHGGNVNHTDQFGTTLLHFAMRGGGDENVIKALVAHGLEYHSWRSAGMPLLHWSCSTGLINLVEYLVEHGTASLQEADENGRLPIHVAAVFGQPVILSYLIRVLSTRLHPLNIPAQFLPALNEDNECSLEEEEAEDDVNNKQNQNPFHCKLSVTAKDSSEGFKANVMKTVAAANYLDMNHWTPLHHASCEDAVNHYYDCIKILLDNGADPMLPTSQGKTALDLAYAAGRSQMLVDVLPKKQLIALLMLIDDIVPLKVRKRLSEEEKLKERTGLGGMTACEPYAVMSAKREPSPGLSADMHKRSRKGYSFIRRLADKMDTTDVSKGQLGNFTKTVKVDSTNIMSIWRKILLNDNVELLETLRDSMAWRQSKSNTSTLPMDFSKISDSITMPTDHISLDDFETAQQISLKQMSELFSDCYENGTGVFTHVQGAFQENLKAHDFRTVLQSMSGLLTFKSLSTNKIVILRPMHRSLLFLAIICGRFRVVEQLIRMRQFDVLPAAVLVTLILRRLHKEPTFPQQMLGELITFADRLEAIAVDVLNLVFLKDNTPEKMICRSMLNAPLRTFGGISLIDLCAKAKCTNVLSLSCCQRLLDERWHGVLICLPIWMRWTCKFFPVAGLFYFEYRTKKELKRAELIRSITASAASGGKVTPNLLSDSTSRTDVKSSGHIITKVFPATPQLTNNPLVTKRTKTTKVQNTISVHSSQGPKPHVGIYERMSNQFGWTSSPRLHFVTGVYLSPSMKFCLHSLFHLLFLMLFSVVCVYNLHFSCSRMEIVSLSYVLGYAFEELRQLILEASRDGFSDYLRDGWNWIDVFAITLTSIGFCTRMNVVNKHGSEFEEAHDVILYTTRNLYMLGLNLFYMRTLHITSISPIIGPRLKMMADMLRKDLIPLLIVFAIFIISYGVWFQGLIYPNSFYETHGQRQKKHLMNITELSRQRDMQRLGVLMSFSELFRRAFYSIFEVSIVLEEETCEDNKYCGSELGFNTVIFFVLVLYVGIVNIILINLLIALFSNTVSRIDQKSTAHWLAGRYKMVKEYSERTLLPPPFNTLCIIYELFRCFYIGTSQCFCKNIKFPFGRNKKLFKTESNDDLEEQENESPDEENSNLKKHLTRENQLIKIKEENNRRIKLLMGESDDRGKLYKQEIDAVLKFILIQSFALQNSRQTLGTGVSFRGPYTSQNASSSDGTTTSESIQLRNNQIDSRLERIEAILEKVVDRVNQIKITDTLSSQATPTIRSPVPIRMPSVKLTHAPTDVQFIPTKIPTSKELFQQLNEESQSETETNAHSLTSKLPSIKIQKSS

[3] = tested on: S. mansoni and S. haematobium infections; conditions: cited from earlier work
[4] = tested on: adult S. mansoni worms; assay: Adult schistosome movement; assay type: cell-based, Schistosoma mansoni; conditions: for Effect on worm movement (paralysis): 1 μM, adult S. mansoni worms, images 1 min after addition; for IC50: Schistosoma mansoni, read-out: Inhibition of motility, IC50
[5] = tested on: Sm.TRPM[Y864A]MCLZ; assay: Ca2+ reporter assay, Sm.TRPM[Y864A]MCLZ mutant; assay type: cell-based, Schistosoma mansoni; conditions: S2 residue mutant
[6] = tested on: Sb.TRPM[H946Y]; assay: Ca2+ reporter assay, Sb.TRPM[H946Y] mutant; assay type: cell-based, Schistosoma bovis; conditions: S4 point mutant
[7] = target: Sb.TRPMMCLZ (Schistosoma bovis, UniProt A0A430Q971); assay: Ca2+ reporter assay, Sb.TRPMMCLZ; assay type: cell-based
[8] = tested on: S. japonicum worms; conditions: cited from earlier work
[9] = target: T1, Sm.TRPMMCLZ; assay: Confocal Ca2+ imaging, HEK293 cells expressing Sm.TRPMMCLZ; assay type: cell-based; conditions: 10 μM
[10] = tested on: Sm.TRPM[E868A]MCLZ; assay: Ca2+ reporter assay, Sm.TRPM[E868A]MCLZ mutant; assay type: cell-based, Schistosoma mansoni; conditions: S2 residue mutant
[11] = tested on: Sm.TRPMMCLZ [Y1038A]; assay type: cell-based, Schistosoma mansoni; conditions: 10 μM, cell-attached
[12] = target: Sh.TRPMMCLZ (Schistosoma haematobium, UniProt A0A922LUV1); assay: Ca2+ reporter assay, Sh.TRPMMCLZ; assay type: cell-based
[13] = tested on: Sm.TRPM[R943A]MCLZ; assay: Ca2+ reporter assay, Sm.TRPM[R943A]MCLZ mutant; assay type: cell-based, Schistosoma mansoni; conditions: binding pocket mutant
[14] = tested on: Sm.TRPM[H831A]MCLZ; assay: Ca2+ reporter assay, Sm.TRPM[H831A]MCLZ mutant; assay type: cell-based, Schistosoma mansoni; conditions: binding pocket mutant
[15] = target: Sm.TRPMPZQ (Schistosoma mansoni, UniProt A0A5K4F0X5); assay: Ca2+ reporter assay; assay type: cell-based
[16] = tested on: Sm.TRPM[H827A]MCLZ; assay: Ca2+ reporter assay, Sm.TRPM[H827A]MCLZ mutant; assay type: cell-based, Schistosoma mansoni; conditions: binding pocket mutant
[17] = tested on: Sm.TRPM[Y1117A]MCLZ; assay: Ca2+ reporter assay, Sm.TRPM[Y1117A]MCLZ mutant; assay type: cell-based, Schistosoma mansoni; conditions: binding pocket mutant
[18] = tested on: HEK293 cells expressing GFP alone; assay: Cell-attached current recordings, HEK293 cells expressing GFP alone; assay type: cell-based; conditions: 10 μM
[19] = tested on: Sh.TRPM[H946Y]; assay: Ca2+ reporter assay, Sh.TRPM[H946Y] mutant; assay type: cell-based, Schistosoma haematobium; conditions: S4 point mutant
[20] = target: Sj.TRPMMCLZ (Schistosoma japonicum, UniProt A0A4Z2D8Z3); assay: Ca2+ reporter assay, Sj.TRPMMCLZ; assay type: cell-based
[21] = tested on: St.TRPM[Y940H]MCLZ
[22] = tested on: St.TRPMMCLZ; assay: Ca2+ reporter assay, St.TRPMMCLZ; assay type: cell-based, Schistosoma turkestanicum; conditions: read-out: Activation of St.TRPMMCLZ, EC50
[23] = tested on: adult S. mansoni worms; conditions: cited from earlier work
[24] = tested on: Sm.TRPM[H946A]MCLZ; assay: Ca2+ reporter assay, Sm.TRPM[H946A]MCLZ mutant; assay type: cell-based, Schistosoma mansoni; conditions: alanine mutant
[25] = target: T1, Sm.TRPMMCLZ; assay: Cell-attached current recordings, HEK293 cells expressing Sm.TRPMMCLZ and GFP; assay type: cell-based; conditions: 10 μM
[26] = tested on: S. mansoni male worms; assay: Acute contraction of S. mansoni male worms by benzodiazepines; assay type: cell-based, Schistosoma mansoni; conditions: 3 μM, 20 min
[27] = preliminary clinical evaluation

Sb.TRPMMCLZ, sequence (A0A430Q971 1-1241): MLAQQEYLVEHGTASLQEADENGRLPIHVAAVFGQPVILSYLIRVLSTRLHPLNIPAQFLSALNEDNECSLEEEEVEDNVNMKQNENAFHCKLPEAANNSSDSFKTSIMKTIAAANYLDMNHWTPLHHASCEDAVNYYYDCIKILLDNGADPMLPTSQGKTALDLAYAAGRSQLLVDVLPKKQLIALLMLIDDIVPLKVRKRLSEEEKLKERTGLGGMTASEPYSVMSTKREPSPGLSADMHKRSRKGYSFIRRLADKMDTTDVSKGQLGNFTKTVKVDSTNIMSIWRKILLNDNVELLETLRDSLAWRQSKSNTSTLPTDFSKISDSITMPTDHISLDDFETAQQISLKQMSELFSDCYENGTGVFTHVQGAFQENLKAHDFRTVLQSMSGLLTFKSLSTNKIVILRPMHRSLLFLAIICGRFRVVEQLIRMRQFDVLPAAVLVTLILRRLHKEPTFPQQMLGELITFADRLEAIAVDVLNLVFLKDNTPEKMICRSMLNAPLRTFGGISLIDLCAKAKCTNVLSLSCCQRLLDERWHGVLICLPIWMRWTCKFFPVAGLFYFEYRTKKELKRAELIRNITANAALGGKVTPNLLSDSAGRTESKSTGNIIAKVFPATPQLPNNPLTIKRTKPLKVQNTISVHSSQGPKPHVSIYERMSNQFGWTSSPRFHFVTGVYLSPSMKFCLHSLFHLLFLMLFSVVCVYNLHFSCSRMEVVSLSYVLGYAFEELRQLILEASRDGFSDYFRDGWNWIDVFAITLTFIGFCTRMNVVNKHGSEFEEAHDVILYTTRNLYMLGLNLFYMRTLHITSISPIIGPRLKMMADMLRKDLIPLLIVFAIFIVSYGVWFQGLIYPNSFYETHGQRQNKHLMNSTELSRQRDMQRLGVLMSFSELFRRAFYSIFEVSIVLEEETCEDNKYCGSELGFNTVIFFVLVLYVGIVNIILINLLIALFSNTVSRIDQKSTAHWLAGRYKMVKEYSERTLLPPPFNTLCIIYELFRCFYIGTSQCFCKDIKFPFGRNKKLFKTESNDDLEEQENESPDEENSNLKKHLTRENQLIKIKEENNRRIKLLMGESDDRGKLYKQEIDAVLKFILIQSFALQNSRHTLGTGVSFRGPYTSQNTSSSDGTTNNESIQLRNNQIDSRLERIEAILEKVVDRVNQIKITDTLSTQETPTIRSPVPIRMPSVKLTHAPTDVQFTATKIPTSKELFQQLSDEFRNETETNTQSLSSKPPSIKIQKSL
Sj.TRPMMCLZ, sequence (A0A4Z2D8Z3 1-1377): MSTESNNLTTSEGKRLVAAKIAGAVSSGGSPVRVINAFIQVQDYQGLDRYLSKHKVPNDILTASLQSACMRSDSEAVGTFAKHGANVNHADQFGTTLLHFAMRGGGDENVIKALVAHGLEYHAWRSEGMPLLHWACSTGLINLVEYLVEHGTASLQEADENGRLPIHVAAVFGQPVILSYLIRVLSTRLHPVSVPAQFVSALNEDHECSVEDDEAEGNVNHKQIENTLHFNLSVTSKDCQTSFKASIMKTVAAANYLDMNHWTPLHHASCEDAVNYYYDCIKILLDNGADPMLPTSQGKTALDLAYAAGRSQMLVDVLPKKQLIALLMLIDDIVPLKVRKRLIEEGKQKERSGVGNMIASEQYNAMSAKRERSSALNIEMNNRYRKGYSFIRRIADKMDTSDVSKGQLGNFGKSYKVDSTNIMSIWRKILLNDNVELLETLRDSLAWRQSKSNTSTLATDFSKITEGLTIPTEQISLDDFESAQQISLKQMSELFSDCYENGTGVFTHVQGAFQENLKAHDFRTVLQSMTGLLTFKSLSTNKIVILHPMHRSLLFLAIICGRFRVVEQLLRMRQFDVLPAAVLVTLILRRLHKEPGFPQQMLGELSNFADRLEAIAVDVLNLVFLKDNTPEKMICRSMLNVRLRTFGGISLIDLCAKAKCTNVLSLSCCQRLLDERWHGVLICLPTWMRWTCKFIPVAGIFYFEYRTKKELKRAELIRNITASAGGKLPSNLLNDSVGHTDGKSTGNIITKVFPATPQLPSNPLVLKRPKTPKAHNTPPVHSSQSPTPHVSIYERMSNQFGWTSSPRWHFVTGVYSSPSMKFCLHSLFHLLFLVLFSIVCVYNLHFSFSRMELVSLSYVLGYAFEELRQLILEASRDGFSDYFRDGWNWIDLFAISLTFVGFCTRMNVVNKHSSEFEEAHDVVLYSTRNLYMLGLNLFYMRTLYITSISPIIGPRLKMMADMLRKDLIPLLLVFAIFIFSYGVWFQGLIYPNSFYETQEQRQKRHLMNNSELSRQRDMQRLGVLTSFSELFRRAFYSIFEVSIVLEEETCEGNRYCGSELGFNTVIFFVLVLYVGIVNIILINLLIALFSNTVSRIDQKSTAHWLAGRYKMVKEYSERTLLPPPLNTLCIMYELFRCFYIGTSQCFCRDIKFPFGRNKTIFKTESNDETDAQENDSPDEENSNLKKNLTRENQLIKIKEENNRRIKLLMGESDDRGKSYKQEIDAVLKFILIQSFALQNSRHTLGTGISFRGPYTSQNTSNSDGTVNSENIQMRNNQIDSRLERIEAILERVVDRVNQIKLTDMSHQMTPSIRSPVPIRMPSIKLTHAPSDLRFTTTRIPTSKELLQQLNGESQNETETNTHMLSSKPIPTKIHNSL
Sh.TRPMMCLZ, sequence (A0A922LUV1 1-1380): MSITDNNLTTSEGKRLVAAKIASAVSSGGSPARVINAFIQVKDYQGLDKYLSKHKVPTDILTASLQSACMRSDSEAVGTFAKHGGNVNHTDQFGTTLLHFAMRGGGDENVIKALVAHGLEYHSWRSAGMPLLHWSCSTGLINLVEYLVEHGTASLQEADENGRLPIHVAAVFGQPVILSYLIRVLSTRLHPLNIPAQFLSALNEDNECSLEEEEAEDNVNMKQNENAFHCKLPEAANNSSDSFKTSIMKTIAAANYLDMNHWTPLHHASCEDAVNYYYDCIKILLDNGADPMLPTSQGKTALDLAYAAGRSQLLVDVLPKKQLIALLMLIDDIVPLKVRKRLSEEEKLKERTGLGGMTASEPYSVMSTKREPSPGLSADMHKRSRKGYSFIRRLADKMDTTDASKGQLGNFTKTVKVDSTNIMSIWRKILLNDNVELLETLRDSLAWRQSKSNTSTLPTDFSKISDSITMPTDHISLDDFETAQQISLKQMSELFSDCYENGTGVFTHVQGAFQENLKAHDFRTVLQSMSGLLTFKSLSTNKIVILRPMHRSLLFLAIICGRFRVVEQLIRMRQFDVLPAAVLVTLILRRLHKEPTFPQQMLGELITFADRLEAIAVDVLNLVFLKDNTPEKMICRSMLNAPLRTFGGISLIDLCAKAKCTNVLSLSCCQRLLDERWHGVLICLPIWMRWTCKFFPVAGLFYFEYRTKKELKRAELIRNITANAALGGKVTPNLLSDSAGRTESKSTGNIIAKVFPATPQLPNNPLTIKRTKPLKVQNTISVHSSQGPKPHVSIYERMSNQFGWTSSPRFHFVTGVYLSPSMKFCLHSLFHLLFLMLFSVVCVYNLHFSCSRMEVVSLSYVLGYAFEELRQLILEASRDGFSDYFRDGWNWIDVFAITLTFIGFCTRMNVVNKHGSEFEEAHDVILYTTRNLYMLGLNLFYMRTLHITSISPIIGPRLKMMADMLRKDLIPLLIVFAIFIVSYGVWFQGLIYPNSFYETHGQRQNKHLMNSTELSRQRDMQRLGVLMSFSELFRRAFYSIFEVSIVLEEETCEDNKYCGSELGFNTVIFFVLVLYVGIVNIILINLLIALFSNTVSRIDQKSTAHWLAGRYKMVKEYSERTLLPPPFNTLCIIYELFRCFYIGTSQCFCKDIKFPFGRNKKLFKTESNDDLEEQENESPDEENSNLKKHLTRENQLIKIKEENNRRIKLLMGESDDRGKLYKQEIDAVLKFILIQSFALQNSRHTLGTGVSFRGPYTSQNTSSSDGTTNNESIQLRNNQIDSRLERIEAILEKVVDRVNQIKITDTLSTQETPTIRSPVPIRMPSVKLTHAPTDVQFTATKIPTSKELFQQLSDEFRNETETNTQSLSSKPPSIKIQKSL

For O=C(C1CCCCC1)N1CC(=O)N2CCc3ccccc3C2C1 (racemic) [(±)-PZQ, praziquantel], the “Efficacy against juvenile / immature worms” value [1] is given as “poorly effective against immature worms”, the “Agonist activity at Sm.TRPMMCLZ (concentration-response)” value ([2]; HEK293 cells, cytoplasmic Ca2+) is given as “did not activate” and the “Antagonism of (S)-MCLZ activation of Sm.TRPMMCLZ” value ([2]; competition versus (S)-MCLZ (1 μM)) is given as “failed to inhibit”. For the same compound, the Cure rates ([3]; at clinical dosing) was 60–90%.

In the case of NCCc1c[nH]c2ccc(O)cc12 [5-hydroxytryptamine], the “Activator screen at Sm.TRPMMCLZ” value [2] is reported as “inactive”.

With O=C(C1CCCCC1)N1CC(=O)N2CCc3ccccc3[C@@H]2C1 [(R)-PZQ, praziquantel] the “Effect on worm movement (paralysis)” value [4] was “rapid, spastic paralysis” and the IC50 [4] was 0.25 ± 0.07 µM.

For C[C@@H]1N=C(c2ccccc2Cl)c2cc([N+](=O)[O-])ccc2NC1=O [(S)-MCLZ, (S)-meclonazepam], the “Activation of Sm.TRPM[Y864A]MCLZ (effect of mutation)” value [5] is listed as “much less of an effect”, the “Sensitivity of Sb.TRPM[H946Y] relative to wildtype” value [6] is listed as “lower sensitivity of response” and the “Efficacy against juvenile / immature worms” value [1] is listed as “displays efficacy against juvenile worms”. For the same compound, the EC50 [7] was 1.3 ± 0.3 µM, the “Activity against S. japonicum worms” value [8] was “poorly active” and the “Ca2+ signals by confocal imaging in cells expressing Sm.TRPMMCLZ” value [9] was “sustained Ca^2+ transients”. The EC50 [2] was 1.1 µM and ~1 µM, the “Activation of Sm.TRPM[E868A]MCLZ (effect of mutation)” value [10] was “much less of an effect” and the “Current response in pore mutant Sm.TRPMMCLZ [Y1038A]” value [11] was “strongly attenuated”. For the same compound, the “Effect on worm movement (paralysis)” value [4] was “rapid, spastic paralysis”, the IC50 [4] was 1.54 ± 0.09 µM and the EC50 [12] was 1.4 ± 0.4 µM. The “Clinical outcome of infection” value [3, 27] was “cured S. mansoni and S. haematobium infections”, the “Side effects in subjects” value [3, 27] was “dose-dependent drowsiness, dizziness, slurred speech, ataxia, reduced mental alertness, muscle weakness, hypotension, and bradycardia” and the “Activation of Sm.TRPM[R943A]MCLZ” value [13] was “little activation”. The “Activation of Sm.TRPM[H831A]MCLZ” value [14] was “little activation”, the “Agonist activity at Sm.TRPMPZQ (concentration-response)” value ([15]; HEK293 cells, 1 nM to 100 μM) was “did not activate” and the “Antagonism of PZQ activation of Sm.TRPMPZQ” value ([15]; competition versus (±)-PZQ (0.6 μM), high concentrations (>30 μM)) was “partially attenuated”. The “Activation of Sm.TRPM[H827A]MCLZ” value [16] was “resembled the wildtype channel”, the “Activation of Sm.TRPM[Y1117A]MCLZ” value [17] was “little activation” and the “Cells with evoked currents” value [18] was 0/10. For the same compound, the “Sensitivity of Sh.TRPM[H946Y] relative to wildtype” value [19] was “lower sensitivity of response”, the EC50 [20] was over 50 µM and the EC50 [21] was 0.8 ± 0.2 µM. For the same compound, the EC50 [22] was over 50 µM, the “Damage to the worm tegument” value [23] was “pronounced damage to the worm tegument” and the “Time to spastic paralysis of adult S. mansoni worms” value [23] was under 1 min. For the same compound, the IC50 ([23]; read-out: Sensitivity of schistosome worms, IC50) was 2 to 3 µM, the “Potency at Sm.TRPM[H946A]MCLZ relative to wildtype” value [24] was “slightly increased potency” and the “Cells with evoked inward current” value ([25]; holding potential of 60 mV as printed) was 17/21. The “Reversal potential of current-voltage relationship” value ([25]; voltage ramp, I-V linear) was about 0 mV.

For O=C1CN=C(c2ccccc2Cl)c2cc([N+](=O)[O-])ccc2N1 [Clonazepam], the EC50 [2] was 2.1 ± 0.2 µM and the “Acute contraction / paralysis of S. mansoni male worms” value [26] was “caused acute worm paralysis”.

With O=C(O)CN(CCOCCOCCN(CC(=O)O)CC(=O)O)CC(=O)O [EGTA] the “Effect of chelation of extracellular Ca2+ on the (S)-MCLZ-evoked Ca2+ signal” value ([2]; EGTA 1 mM in Ca2+-free HBSS, (S)-MCLZ 100 μM) was “abolished”.

In the case of COC(=O)c1c(C)[nH]c(C)c1C(=O)c1ccccc1Cc1ccccc1 [FPL-64176], the “Activator screen at Sm.TRPMMCLZ” value [2] is reported as “activated” and the “Activation of Sm.TRPMPZQ by Cav channel ligands” value ([15]; Fig. S2 concentration-response) is reported as “but not Sm.TRPMPZQ”.

For NCCCC(=O)O [GABA], the “Activator screen at Sm.TRPMMCLZ” value [2] was “inactive”.

For [Cl-].[Cl-].[Mg+2] [Mg^2+, MgCl2], the “Inhibition of Ca2+ permeability through TRPMMCLZ by metal salt” value ([2]; (S)-MCLZ 1 μM, weakest in rank order La3+ > Ba2+ > Mg2+) was “partial inhibition”.

With C=CCN=C=S [allyl isothiocyanate] the “Activator screen at Sm.TRPMMCLZ” value [2] was “inactive”.

For COc1cc(CNC(=O)CCCC/C=C/C(C)C)ccc1O [capsaicin], the “Activator screen at Sm.TRPMMCLZ” value [2] was “inactive”.
